According to PubChem BioAssay AID330 (DTP/NCI, 2004):
Where “and” joins values, the source holds several entries; their conditions need not be identical. Equal values may be shown once. Toxic doses and inconclusive results are not listed. How the source made its calls: active means survival T/C of 150% or more; inactive means T/C below 125% in these data.

Test system: P388 leukemia ip, CD2F1 mice, survival T/C
Test: NCI In Vivo Anticancer Drug Screen. Data for tumor model P388 Leukemia (intraperitoneal) in CD2F1 (CDF1) mice
Settings: endpoint: median survival time, higher = longer survival
In short: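 Mice carrying the transplanted tumor received test compound or vehicle. Survival was recorded in each group, and the value is the treated-group measurement divided by that of the vehicle-treated control group.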

[1] = dose: 50.0 mg/kg/injection, schedule: Q01DX005 (ip), vehicle: saline
[2] = dose: 100.0 mg/kg/injection, schedule: Q01DX005 (ip), vehicle: saline
[3] = dose: 50.0 mg/kg/injection, schedule: Q01DX009 (ip), vehicle: saline with Tween-80
[4] = dose: 50.0 mg/kg/injection, schedule: Q01DX005 (ip), vehicle: Klucel (hydroxypropylcellulose) (HPC)
[5] = dose: 100.0 mg/kg/injection, schedule: Q01DX005 (ip), vehicle: Klucel (hydroxypropylcellulose) (HPC)
[6] = dose: 25.0 mg/kg/injection, schedule: Q01DX005 (ip), vehicle: Klucel (hydroxypropylcellulose) (HPC)
[7] = dose: 50.0 mg/kg/injection, schedule: Q01DX009 (ip), vehicle: Klucel (hydroxypropylcellulose) (HPC)
[8] = dose: 100.0 mg/kg/injection, schedule: Q01DX009 (ip), vehicle: Klucel (hydroxypropylcellulose) (HPC)
[9] = dose: 200.0 mg/kg/injection, schedule: Q01DX009 (ip), vehicle: Klucel (hydroxypropylcellulose) (HPC)
[10] = dose: 60.0 mg/kg/injection, schedule: Q01DX005 (ip), vehicle: saline
[11] = dose: 120.0 mg/kg/injection, schedule: Q01DX005 (ip), vehicle: saline
[12] = dose: 100.0 mg/kg/injection, schedule: Q01DX001 (ip), vehicle: saline with Tween-80
[13] = dose: 200.0 mg/kg/injection, schedule: Q01DX001 (ip), vehicle: saline with Tween-80
[14] = dose: 400.0 mg/kg/injection, schedule: Q01DX001 (ip), vehicle: saline with Tween-80

Measured: T/C

CCCCCN(CCNc1cc(OC)cc2cccnc12)C(C)CC (stereo not drawn)
inactive: dose: 12.5 mg/kg/injection, schedule: Q01DX005 (ip), vehicle: saline 112 % of control | dose: 25.0 mg/kg/injection, schedule: Q01DX005 (ip), vehicle: saline 103 % of control | [1] 101 % of control and 97 % of control | [2] 100 % of control

C[As](C)SCCC(N)C(=O)NC(CCS[As](C)C)C(=O)O (stereo not drawn)
inactive: dose: 12.5 mg/kg/injection, schedule: Q01DX009 (ip), vehicle: Klucel (hydroxypropylcellulose) (HPC) 110 % of control

CC(C)(C)NSc1nc2ccccc2s1
inactive: dose: 12.5 mg/kg/injection, schedule: Q01DX009 (ip), vehicle: saline with Tween-80 109 % of control | dose: 12.5 mg/kg/injection, schedule: Q04DX003 (ip), vehicle: saline with Tween-80 100 % of control | dose: 25.0 mg/kg/injection, schedule: Q01DX009 (ip), vehicle: saline with Tween-80 100 % of control | dose: 25.0 mg/kg/injection, schedule: Q04DX003 (ip), vehicle: saline with Tween-80 95 % of control | [3] 100 % of control | dose: 50.0 mg/kg/injection, schedule: Q04DX003 (ip), vehicle: saline with Tween-80 100 % of control and 87 % of control

CCCCOC(=O)/C=C/C(=O)N1CCN(C(=O)/C=C/C(=O)OCCCC)C(C)C1 (stereo not drawn)
inactive: [4] 100 % of control | [5] 94 % of control | dose: 200.0 mg/kg/injection, schedule: Q01DX005 (ip), vehicle: Klucel (hydroxypropylcellulose) (HPC) 96 % of control

CCCN(CCC)CCSC(=S)NCCOC
inactive: dose: 100.0 mg/kg/injection, schedule: Q04DX003 (ip), vehicle: saline with Tween-80 100 % of control | dose: 200.0 mg/kg/injection, schedule: Q04DX003 (ip), vehicle: saline with Tween-80 100 % of control

COc1ccc2c(c1O)C1=CC(O)CCC13CCN(C)C3C2 (stereo not drawn)
inactive: dose: 100.0 mg/kg/injection, schedule: Q04DX002 (ip), vehicle: suspension in saline 100 % of control | dose: 200.0 mg/kg/injection, schedule: Q04DX002 (ip), vehicle: suspension in saline 96 % of control | dose: 400.0 mg/kg/injection, schedule: Q04DX002 (ip), vehicle: suspension in saline 103 % of control

CC/C(=C(/O)c1ccccc1)c1nc2ccc(Cl)cc2[nH]c1=O
inactive: dose: 60.0 mg/kg/injection, schedule: Q01DX005 (ip), vehicle: Klucel + Tween-80 100 % of control | dose: 120.0 mg/kg/injection, schedule: Q01DX005 (ip), vehicle: Klucel + Tween-80 93 % of control | dose: 240.0 mg/kg/injection, schedule: Q01DX005 (ip), vehicle: Klucel + Tween-80 98 % of control

CCC(O)(C(=O)O)c1cc[n+](Cc2cnc3ccccc3c2)cc1C (stereo not drawn)
inactive: dose: 12.5 mg/kg/injection, schedule: Q01DX005 (ip), vehicle: Klucel (hydroxypropylcellulose) (HPC) 96 % of control | [6] 86 % of control | [4] 100 % of control

C=C1C2CC[C@H]3C4(C)CCCC(C)(C(=O)O)[C@H]4CCC3(C2)[C@@H]1OC(C)=O (stereo partly drawn)
inactive: dose: 3.5 mg/kg/injection, schedule: Q01DX005 (ip), vehicle: Klucel (hydroxypropylcellulose) (HPC) 108 % of control | dose: 7.0 mg/kg/injection, schedule: Q01DX005 (ip), vehicle: Klucel (hydroxypropylcellulose) (HPC) 97 % of control | dose: 14.0 mg/kg/injection, schedule: Q01DX005 (ip), vehicle: Klucel (hydroxypropylcellulose) (HPC) 100 % of control | [6] 88 % of control | dose: 28.0 mg/kg/injection, schedule: Q01DX005 (ip), vehicle: Klucel (hydroxypropylcellulose) (HPC) 94 % of control | [4] 90 % of control | [5] 90 % of control

Cc1nc2ccc(Cl)cn2c1[N+](=O)[O-]
inactive: [7] 96 % of control | [8] 95 % of control | [9] 96 % of control

CC(C)(C)SC(=O)C1(C(OC(=O)c2ccccc2)c2ccccc2)CC1 (stereo not drawn)
inactive: dose: 100.0 mg/kg/injection, schedule: Q04DX003 (ip), vehicle: Klucel (hydroxypropylcellulose) (HPC) 96 % of control | dose: 200.0 mg/kg/injection, schedule: Q04DX003 (ip), vehicle: Klucel (hydroxypropylcellulose) (HPC) 100 % of control | dose: 400.0 mg/kg/injection, schedule: Q04DX003 (ip), vehicle: Klucel (hydroxypropylcellulose) (HPC) 89 % of control

N#CN=C1N=S(=O)(c2ccccc2)c2ccccc21 (stereo not drawn)
inactive: [7] 103 % of control | [8] 100 % of control | [9] 101 % of control

COC(=O)C(O)(C(=O)OC)C1=C(N)C(=O)c2ccccc2C1=O
inactive: [1] 111 % of control | [2] 123 % of control

CCOC(=O)c1cc(NC(C)=O)cn1C
inactive: [3] 102 % of control | dose: 100.0 mg/kg/injection, schedule: Q01DX009 (ip), vehicle: saline with Tween-80 104 % of control | dose: 200.0 mg/kg/injection, schedule: Q01DX009 (ip), vehicle: saline with Tween-80 103 % of control

Cc1oc2ccccc2c(=O)c1CN1CCOCC1
inactive: [10] 101 % of control | [11] 103 % of control

CCOC(=O)C(C(=O)C(F)(F)C(F)(F)C(F)(F)C(=O)C(C(=O)OCC)=P(c1ccccc1)(c1ccccc1)c1ccccc1)=P(c1ccccc1)(c1ccccc1)c1ccccc1
inactive: [12] 108 % of control | [13] 99 % of control | [14] 108 % of control

CC(N)CCc1ccccc1 (stereo not drawn)
inactive: dose: 12.5 mg/kg/injection, schedule: Q01DX009 (ip), vehicle: saline sonified 100 % of control | dose: 25.0 mg/kg/injection, schedule: Q01DX009 (ip), vehicle: saline sonified 100 % of control | dose: 50.0 mg/kg/injection, schedule: Q01DX009 (ip), vehicle: saline sonified 100 % of control

CN1C(c2ccccc2)C2CCCC(C1c1ccccc1)C21NC(=O)NC1=O (stereo not drawn)
inactive: [12] 97 % of control | [13] 94 % of control | [14] 94 % of control

O=Cc1ccc(O)c(CN2CCCCC2)c1
inactive: dose: 6.25 mg/kg/injection, schedule: Q04DX003 (ip), vehicle: saline 109 % of control | dose: 12.5 mg/kg/injection, schedule: Q04DX003 (ip), vehicle: saline 100 % of control | dose: 25.0 mg/kg/injection, schedule: Q04DX003 (ip), vehicle: saline 100 % of control

C/C(=N\N)c1cnc(N)nc1C
inactive: [10] 101 % of control | [11] 107 % of control | dose: 240.0 mg/kg/injection, schedule: Q01DX005 (ip), vehicle: saline 100 % of control
